Patent US12146134B2, “Microfluidic devices and methods of use in the formation and control of nanoreactors” (Bio-Rad Laboratories, Inc., priority 2006, dated 2024)
{Fluorescein} = fluorescein label; {Biotin} = biotin label

Experiments:
[1] = tested on: Oligonucleotide 102; test: measurement of DNA hybridization using fluorescence polarization (FP) on the microfluidic device; assay type: binding; settings: addition of oligonucleotide to the fluorescein-labeled 102
Description: (A) FP can be used to measure the binding of 2 DNA molecules on the microfluidic device. (B) Oligonucleotide 102 is complement to both 101 and 103. […] Oligonucleotides; #101:[NT] ID NO: 1); #102: [NT] ID NO: 2); #103: [NT] NO: 3).

[2] = molecular target: Steptaviden (Streptomyces avidinii, UniProt P22629); test: fluorescence polarization measurements in droplets inside the microfluidic device (biotin/streptavidin binding); settings: droplets 65 to 75 um, 10 mM Borate pH 9, data normalized so P(Fluorescein)=0.0
Description: In addition to molecular beacons and Taqman, the devices of the present invention can be used to cany out fluorescence polarization as described herein. Most SNP assays can be adapted for both mini-sequencing and gene expression analysis. A series of fluorescence polarization measurements have been made inside a microfluidic device according to the present invention while looking at droplets containing Fluorescein, Fluorescein bound to biotin, and Fluorescein bound to biotin+Steptaviden. The fluorescence signal was split into two orthogonal polarizations: one parallel to the laser excitation polarization, and one perpendicular to the polarization. These signal were collected and analyzed to determine the change in polarization of the fluorescence for each of these binding conditions.
The Polarization is calculated from:
[formula] Where V=fluorescence signal polarized parallel to laser excitation polarization, and H=fluorescence signal polarized perpendicular.
The fluorescence station was modified to include cleanup polarizer for the laser and a polarizing beamsplitter with cleanup polarizers for collection. The two resulting fluorescence channels collect light with orthogonal polarizations (“Vertical” is parallel to the laser polarization, “Horizontal” is perpendicular to the laser polarization). […]

Chain of Steptaviden (P22629 25-183): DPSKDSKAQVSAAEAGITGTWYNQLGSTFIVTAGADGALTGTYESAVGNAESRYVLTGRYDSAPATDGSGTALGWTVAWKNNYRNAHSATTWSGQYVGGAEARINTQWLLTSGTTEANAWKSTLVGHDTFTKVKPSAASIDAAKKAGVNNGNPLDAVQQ

103: 5′ Fluorescein-labeled oligonucleotide, SEQ ID NO: 3 (DNA CTAAACTCCTGATTTATGCTGCATCCATTTTGC; DNA, 5' {Fluorescein}, backbone not given here) [compound 103]
shift of mP value of labeled 102, indicative of binding [1]: shifts the mP value

Biotinylated Fluorescein [Biotinalated Fluorescein]
Polarization (mean of histogram grouping) [2]: 18.4 mP

B1: 101: 5′ Biotin-labeled oligonucleotide, SEQ ID NO: 1 (nucleic acid)
DNA: ATCCGCCCCAGCAGCTGCCAGGCACAGCCCCTAAACTCCTGATTTATGCTGCATCCATTTTGC
modifications: DNA, 5' {Biotin}, backbone not given here
shift of mP value of labeled 102, indicative of binding [1]: shifts the mP value
